Assay results: patent US20250098679A1, “HERBICIDAL PYRIDONE DERIVATIVES” (SYNGENTA CROP PROTECTION AG, priority 2021, published 2025)

Key:
Assay type in all cases: in vivo
Conditions in all cases: evaluated after 13 days
[1] = test system: Amaranthus retoflexus (AMARE); assay: Post-emergence Test, Amaranthus retoflexus (AMARE); set-up: key to percentage damage caused to the plant, AMARE (five-point scale): 5=81-100%, 4=61-80%, 3=41-60%, 2=21-40%, 1=0-20% damage
In short: (§1)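 Scores are percentage plant damage on a 1–5 scale (1=0-20%, 2=21-40%, 3=41-60%, 4=61-80%, 5=81-100%), read 13 days after treatment. Pots received a spray at 1000 g/ha unless otherwise stated, formulated in acetone/water (50:50) containing 0.5% Tween 20.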

[2] = test system: Echinochloa crus-galli (ECHCG); assay: Post-emergence Test, Echinochloa crus-galli (ECHCG); set-up: key to percentage damage caused to the plant, ECHCG (five-point scale): 5=81-100%, 4=61-80%, 3=41-60%, 2=21-40%, 1=0-20% damage
In short: as §1

[3] = test system: Amaranthus retoflexus (AMARE); assay: Pre-emergence Test, Amaranthus retoflexus (AMARE)
[4] = test system: Amaranthus palmeri (AMAPA); assay: Post-emergence Test, Amaranthus palmeri (AMAPA); set-up: key: 5=81-100%, 4=61-80%, 3=41-60%, 2=21-40%, 1=0-20% damage
In short: as §1

[5] = test system: Ipomoea hederacea (IPOHE); assay: Post-emergence Test, Ipomoea hederacea (IPOHE); set-up: key to percentage damage caused to the plant, IPOHE (five-point scale): 5=81-100%, 4=61-80%, 3=41-60%, 2=21-40%, 1=0-20% damage
In short: as §1

Setaria faberi (SETFA) [6] = assay: Post-emergence Test, Setaria faberi (SETFA); set-up: key to percentage damage caused to the plant, SETFA (five-point scale): 5=81-100%, 4=61-80%, 3=41-60%, 2=21-40%, 1=0-20% damage
In short: as §1

Zea mays (ZEAMX) [7] = assay: Post-emergence Test, Zea mays (ZEAMX); set-up: key to percentage damage caused to the plant, ZEAMX (five-point scale): 5=81-100%, 4=61-80%, 3=41-60%, 2=21-40%, 1=0-20% damage
In short: as §1

Zea mays (ZEAMX) [8] = assay: Pre-emergence Test, Zea mays (ZEAMX)
[9] = test system: Echinochloa crus-galli (ECHCG); assay: Pre-emergence Test, Echinochloa crus-galli (ECHCG)
[10] = test system: Ipomoea hederacea (IPOHE); assay: Pre-emergence Test, Ipomoea hederacea (IPOHE)
Setaria faberi (SETFA) [11] = assay: Pre-emergence Test, Setaria faberi (SETFA)
[12] = test system: Amaranthus palmeri (AMAPA); assay: Pre-emergence Test, Amaranthus palmeri (AMAPA)

SMILES | percentage damage caused to the plant, AMARE (five-point scale) ([1]; 1000 g/ha) | percentage damage caused to the plant, ECHCG (five-point scale) ([2]; 1000 g/ha) | Pre-emergence Test AMARE, percentage damage caused to the plant (five-point scale) ([3]; 1000 g/ha) | percentage damage caused to the plant, AMAPA (five-point scale) ([4]; 1000 g/ha) | percentage damage caused to the plant, IPOHE (five-point scale) ([5]; 1000 g/ha) | percentage damage caused to the plant, SETFA (five-point scale) (Setaria faberi (SETFA) [6]; 1000 g/ha) | percentage damage caused to the plant, ZEAMX (five-point scale) (Zea mays (ZEAMX) [7]; 1000 g/ha) | Pre-emergence Test ZEAMX, percentage damage caused to the plant (five-point scale) (Zea mays (ZEAMX) [8]; 1000 g/ha) | Pre-emergence Test ECHCG, percentage damage caused to the plant (five-point scale) ([9]; 1000 g/ha) | Pre-emergence Test IPOHE, percentage damage caused to the plant (five-point scale) ([10]; 1000 g/ha) | Pre-emergence Test SETFA, percentage damage caused to the plant (five-point scale) (Setaria faberi (SETFA) [11]; 1000 g/ha) | Pre-emergence Test AMAPA, percentage damage caused to the plant (five-point scale) ([12]; 1000 g/ha) | Pre-emergence Test AMARE, percentage damage caused to the plant (five-point scale) ([3]; 250 g/Ha (*)) | Pre-emergence Test ZEAMX, percentage damage caused to the plant (five-point scale) (Zea mays (ZEAMX) [8]; 250 g/Ha (*)) | percentage damage caused to the plant, AMARE (five-point scale) ([1]; 250 g/Ha) | percentage damage caused to the plant, ECHCG (five-point scale) ([2]; 250 g/Ha) | percentage damage caused to the plant, AMAPA (five-point scale) ([4]; 250 g/Ha) | percentage damage caused to the plant, IPOHE (five-point scale) ([5]; 250 g/Ha) | percentage damage caused to the plant, SETFA (five-point scale) (Setaria faberi (SETFA) [6]; 250 g/Ha) | percentage damage caused to the plant, ZEAMX (five-point scale) (Zea mays (ZEAMX) [7]; 250 g/Ha) | other results
CCn1c(Cn2ccc(C(F)(F)F)n2)c(C)c(=O)c(C(=O)O)c1-c1ccc(Cl)c(Cl)c1 [Compound 20, 2-(3,4-dichlorophenyl)-1-ethyl-5-methyl-4-oxo-6-[[3-(trifluoromethyl)pyrazol-1-yl]methyl]pyridine-3-carboxylic acid] | 1 (1=0-20%) | 3 (3=41-60%) | 0 | 0 | 0 | 4 (4=61-80%) | 1 (1=0-20%) | 1 (1=0-20%) | 4 (4=61-80%) | 0 | 2 (2=21-40%) | 0 |  |  |  |  |  |  |  |  | 
CCn1c(Cn2ccc(C(F)(F)F)n2)c(-c2ccc(Cl)cc2)c(=O)c(C(=O)O)c1-c1ccc(Cl)c(Cl)c1 [Compound 21, 5-(4-chlorophenyl)-2-(3,4-dichlorophenyl)-1-ethyl-4-oxo-6-[[3-(trifluoromethyl)pyrazol-1-yl]methyl]pyridine-3-carboxylic acid] | 1 (1=0-20%) | 0 |  | 2 (2=21-40%) | 3 (3=41-60%) | 0 | 1 (1=0-20%) |  |  |  |  |  | 0 | 0 |  |  |  |  |  |  | Pre-emergence Test ECHCG, percentage damage caused to the plant (five-point scale) ([9]; 250 g/Ha (*)): 0; Pre-emergence Test IPOHE, percentage damage caused to the plant (five-point scale) ([10]; 250 g/Ha (*)): 1 (1=0-20%); Pre-emergence Test SETFA, percentage damage caused to the plant (five-point scale) (Setaria faberi (SETFA) [11]; 250 g/Ha (*)): 0; Pre-emergence Test AMAPA, percentage damage caused to the plant (five-point scale) ([12]; 250 g/Ha (*)): 0
CCn1c(Cn2ccc(C(F)(F)F)n2)cc(=O)c(C(=O)OC)c1-c1ccc(Cl)cc1 [Compound 22, methyl 2-(4-chlorophenyl)-1-ethyl-4-oxo-6-[[3-(trifluoromethyl)pyrazol-1-yl]methyl]pyridine-3-carboxylate] | 1 (1=0-20%) | 3 (3=41-60%) | 0 | 1 (1=0-20%) | 2 (2=21-40%) | 3 (3=41-60%) | 1 (1=0-20%) | 0 | 3 (3=41-60%) | 0 | 4 (4=61-80%) | 0 | 0 | 0 | 1 (1=0-20%) | 0 | 1 (1=0-20%) | 1 (1=0-20%) | 3 (3=41-60%) | 0 | Pre-emergence Test ECHCG, percentage damage caused to the plant (five-point scale) ([9]; 250 g/Ha (*)): 1 (1=0-20%); Pre-emergence Test IPOHE, percentage damage caused to the plant (five-point scale) ([10]; 250 g/Ha (*)): 0; Pre-emergence Test SETFA, percentage damage caused to the plant (five-point scale) (Setaria faberi (SETFA) [11]; 250 g/Ha (*)): 4 (4=61-80%); Pre-emergence Test AMAPA, percentage damage caused to the plant (five-point scale) ([12]; 250 g/Ha (*)): 0
CCn1c(Cn2ccc(C(F)(F)F)n2)cc(=O)c(C(=O)O)c1-c1cccc(Cl)c1 [Compound 25, 2-(3-chlorophenyl)-1-ethyl-4-oxo-6-[[3-(trifluoromethyl)pyrazol-1-yl]methyl]pyridine-3-carboxylic acid] | 2 (2=21-40%) | 4 (4=61-80%) | 2 (2=21-40%) | 2 (2=21-40%) | 4 (4=61-80%) | 4 (4=61-80%) | 3 (3=41-60%) | 1 (1=0-20%) | 5 (5=81-100%) | 1 (1=0-20%) | 5 (5=81-100%) | 2 (2=21-40%) |  |  | 2 (2=21-40%) | 3 (3=41-60%) | 2 (2=21-40%) | 4 (4=61-80%) | 4 (4=61-80%) | 0 | 
CCOC(=O)c1c(-c2cccc(Cl)c2)n(CC)c(Cn2ccc(C(F)(F)F)n2)cc1=O [Compound 26, ethyl 2-(3-chlorophenyl)-1-ethyl-4-oxo-6-[[3-(trifluoromethyl)pyrazol-1-yl]methyl]pyridine-3-carboxylate] | 1 (1=0-20%) | 1 (1=0-20%) | 0 | 2 (2=21-40%) | 3 (3=41-60%) | 1 (1=0-20%) | 2 (2=21-40%) | 1 (1=0-20%) | 2 (2=21-40%) | 0 | 3 (3=41-60%) | 0 |  |  | 1 (1=0-20%) | 1 (1=0-20%) | 1 (1=0-20%) | 1 (1=0-20%) | 1 (1=0-20%) | 1 (1=0-20%) | 
CCOC(=O)c1c(-c2ccc(Cl)c(Cl)c2)n(CC)c(Cn2ccc(Cl)n2)c(Br)c1=O [Compound 27, ethyl 5-bromo-6-[(3-chloropyrazo1-1-yl)methyl]-2-(3,4-dichlorophenyl)-1-ethyl-4-oxo-pyridine-3-carboxylate] | 0 | 0 | 1 (1=0-20%) | 0 | 0 | 0 | 0 | 0 | 0 | 0 | 0 | 0 |  |  |  |  |  |  |  |  | 
